# System: A-CHK1 mESCs
# Assay: Aphidicolin sensitivity of A-CHK1 mESCs (crystal violet staining)
# Format: cell-based, mouse
# Method: FIG. 5A is a western blot analysis depicting endogenous CHK1 (*) and AID^47-CHK1 (A-CHK1, **) in four selected clones and in parental non-infected mESCs. […] serves as a loading control. Experiment was repeated three times for clones #1 and #2, and a representative blot is presented. In FIG. 5B, A-CHK1 #2 mESCs were treated with ethanol (“Con”) or auxin (“IAA”) for 1 day. Cells were then treated with the indicated concentrations of aphidicolin (“Aph”). Equal concentrations of DMSO were applied to all conditions. The next day, cells were stained with crystal violet and plates were scanned. […] In FIG. 5C, mESC clones were pretreated with […] aphidicolin for 1 day and were then treated with auxin for the indicated time periods. Left panel: mitotic index was calculated as the percentage of H3^pS10-positive cells with 4N DNA content, measured by flow cytometry. […] Tyr15 phosphorylation of CDK1 (“CDKlpY^15”) was detected using a phospho-specific antibody. β-Actin serves as a loading control. […]
# CCE mESCs were infected with pRAIDRS A-CHK1 or GFP-A. Selected clones were analyzed for their CHK1-dependent response to aphidicolin treatment. […] Cells were then treated with 1 μM 5 aphidicolin (“Aph”) or 0.001% DMSO for 12 hours and analyzed for DNA content using propidium iodide (“PI”). […] Apoptotic index was calculated as the percentage of Annexin V-positive, 7-AAD-negative cells. […]
structure (smiles),measurement,setting,value
"C[C@@]1(CO)[C@H](O)CC[C@@]2(C)[C@H]1CC[C@H]1C[C@@H]3C[C@@]12CC[C@]3(O)CO [aphidicolin, Aphidicolin]",aphidicolin concentration after which cells died,auxin-treated (CHK1-depleted) A-CHK1 mESCs,0.1 mM
same,fold higher aphidicolin concentration at which control cells survived,control-treated A-CHK1 cells versus auxin-treated cells,100 fold
